# Tested on: MV-4-11 cells
# Assay: Gene expression microarray analysis (Affymetrix PrimeView) and GSEA
# Format: cell-based, human
# Design: RFU PODN (11730768_x_at) / Fold change /veh PODN (11730768_x_at) / RFU LINC00158 (11744669_a_at) / Fold change /veh LINC00158 (11744669_a_at) / RFU DUSP10 (11751237_a_at) / Fold change /veh DUSP10 (11751237_a_at) / RFU ID3 (11757404_x_at) / Fold change /veh ID3 (11757404_x_at) / RFU PLEKHG5 (11737974_s_at) / Fold change /veh PLEKHG5 (11737974_s_at) / RFU LRRC4B (11730491_at) / Fold change /veh LRRC4B (11730491_at) / RFU GIMAP4 (11747438_a_at) / Fold change /veh GIMAP4 (11747438_a_at) / RFU KRT8 (11758183_x_at) / Fold change /veh KRT8 (11758183_x_at) / RFU CNN1 (11734310_a_at) / Fold change /veh CNN1 (11734310_a_at) / RFU VPS37D (11726825_at) / Fold change /veh VPS37D (11726825_at) / RFU C10orf10 (11716522_x_at) / Fold change /veh C10orf10 (11716522_x_at) / RFU KIR2DL2 /// KIR2DL4 /// KIR2DL5A /// KIR2DL5B /// KIR2DS1 /// KIR2DS2 /// KIR2DS3 /// KIR2DS4 /// KIR3DL3 /// KIR3DL3 /// KIR3DS1 (11738374_at) / Fold change /veh KIR2DL2 /// KIR2DL4 /// KIR2DL5A /// KIR2DL5B /// KIR2DS1 /// KIR2DS2 /// KIR2DS3 /// KIR2DS4 /// KIR3DL3 /// KIR3DL3 /// KIR3DS1 (11738374_at) / RFU C1QL1 (11718748_at) / Fold change /veh C1QL1 (11718748_at) / RFU TMPRSS4 (11747572_a_at) / Fold change /veh TMPRSS4 (11747572_a_at) / RFU HAMP (11756126_x_at) / Fold change /veh HAMP (11756126_x_at) / RFU RNFT2 (11725882_a_at) / Fold change /veh RNFT2 (11725882_a_at) / RFU NR4A2 (11747474_a_at) / Fold change /veh NR4A2 (11747474_a_at) / RFU ABCC12 (11746883_a_at) / Fold change /veh ABCC12 (11746883_a_at) / RFU TMEM136 (11760407_x_at) / Fold change /veh TMEM136 (11760407_x_at) / RFU CLDN22 /// WWC2 (11732394_at) / Fold change /veh CLDN22 /// WWC2 (11732394_at) / RFU HLA-DPB1 (11760878_x_at) / Fold change /veh HLA-DPB1 (11760878_x_at) / RFU SPINT1 (11716480_a_at) / Fold change /veh SPINT1 (11716480_a_at) / RFU GAP43 (11754022_s_at) / Fold change /veh GAP43 (11754022_s_at) / RFU A4GNT (11735810_at) / Fold change /veh A4GNT (11735810_at) / RFU PRB3 (11715151_x_at) / Fold change /veh PRB3 (11715151_x_at) / RFU TUBB4B (11761932_at) / Fold change /veh TUBB4B (11761932_at) / RFU CAPN14 (11732068_a_at) / Fold change /veh CAPN14 (11732068_a_at) / RFU TMCC2 (11721928_a_at) / Fold change /veh TMCC2 (11721928_a_at) / RFU IRGQ (11745062_a_at) / Fold change /veh IRGQ (11745062_a_at) / RFU FAM174B (11720279_a_at) / Fold change /veh FAM174B (11720279_a_at) / RFU TMPRSS4 (11748680_a_at) / Fold change /veh TMPRSS4 (11748680_a_at) / RFU FAM212B (11763350_a_at) / Fold change /veh FAM212B (11763350_a_at) / RFU PLEKHG5 (11743358_a_at) / Fold change /veh PLEKHG5 (11743358_a_at) / RFU ZSCAN30 (11745921_a_at) / Fold change /veh ZSCAN30 (11745921_a_at) / RFU CMKLR1 (11741424_a_at) / Fold change /veh CMKLR1 (11741424_a_at) / RFU LOC101060620 /// MAPK8IP1 (11723275_at) / Fold change /veh LOC101060620 /// MAPK8IP1 (11723275_at) / RFU SPTSSB (11747773_x_at) / Fold change /veh SPTSSB (11747773_x_at) / RFU PRSS12 (11739890_at) / Fold change /veh PRSS12 (11739890_at) / RFU BIN1 (11741810_x_at) / Fold change /veh BIN1 (11741810_x_at) / RFU WNT11 (11732464_a_at) / Fold change /veh WNT11 (11732464_a_at) / RFU C10orf10 (11716521_a_at) / Fold change /veh C10orf10 (11716521_a_at) / RFU C5orf56 (11738089_at) / Fold change /veh C5orf56 (11738089_at) / RFU CYB561 (11721691_x_at) / Fold change /veh CYB561 (11721691_x_at) / RFU ANKRD19P (11752326_a_at) / Fold change /veh ANKRD19P (11752326_a_at) / RFU OR2T12 /// OR2T33 /// OR2T8 (11738714_s_at) / Fold change /veh OR2T12 /// OR2T33 /// OR2T8 (11738714_s_at) / RFU VCAN (11748164_a_at) / Fold change /veh VCAN (11748164_a_at) / RFU JSRP1 (11732532_at) / Fold change /veh JSRP1 (11732532_at) / RFU KRTAP10-11 (11738290_x_at) / Fold change /veh KRTAP10-11 (11738290_x_at) / RFU MYO3A (11730013_a_at) / Fold change /veh MYO3A (11730013_a_at) / RFU EBF3 (11725865_a_at) / Fold change /veh EBF3 (11725865_a_at) / RFU CAMK2N1 (11719241_x_at) / Fold change /veh CAMK2N1 (11719241_x_at) / RFU C5orf56 (11738088_a_at) / Fold change /veh C5orf56 (11738088_a_at) / RFU OLFML3 (11715873_a_at) / Fold change /veh OLFML3 (11715873_a_at) / RFU LOC100653217 /// NTM (11731650_a_at) / Fold change /veh LOC100653217 /// NTM (11731650_a_at) / RFU MAPK11 (11762145_a_at) / Fold change /veh MAPK11 (11762145_a_at) / RFU FIZ1 (11724087_x_at) / Fold change /veh FIZ1 (11724087_x_at) / RFU OASL (11726364_x_at) / Fold change /veh OASL (11726364_x_at) / RFU SOX15 (11748057_x_at) / Fold change /veh SOX15 (11748057_x_at) / RFU CD79A (11719716_a_at) / Fold change /veh CD79A (11719716_a_at) / RFU HIST1H1D (11736915_at) / Fold change /veh HIST1H1D (11736915_at) / RFU CASKIN2 (11723855_a_at) / Fold change /veh CASKIN2 (11723855_a_at) / RFU LOC730098 (11760151_x_at) / Fold change /veh LOC730098 (11760151_x_at) / RFU OR4N2 (11742367_at) / Fold change /veh OR4N2 (11742367_at) / RFU PRRT2 (11749266_a_at) / Fold change /veh PRRT2 (11749266_a_at) / RFU SNX32 (11753110_a_at) / Fold change /veh SNX32 (11753110_a_at) / RFU CDHR5 (11726645_a_at) / Fold change /veh CDHR5 (11726645_a_at) / RFU RCAN1 (11760418_a_at) / Fold change /veh RCAN1 (11760418_a_at) / RFU FAM167A (11723789_a_at) / Fold change /veh FAM167A (11723789_a_at) / RFU FAM26E (11764081_at) / Fold change /veh FAM26E (11764081_at) / RFU ISYNA1 (11749810_s_at) / Fold change /veh ISYNA1 (11749810_s_at) / RFU ACY1 (11761880_at) / Fold change /veh ACY1 (11761880_at) / RFU 11764098_at / Fold change /veh 11764098_at / RFU SAMD14 (11745864_x_at) / Fold change /veh SAMD14 (11745864_x_at) / RFU NPB (11741838_a_at) / Fold change /veh NPB (11741838_a_at) / RFU TMPRSS6 (11731388_a_at) / Fold change /veh TMPRSS6 (11731388_a_at) / RFU KRTAP10-2 (11738614_at) / Fold change /veh KRTAP10-2 (11738614_at) / RFU ARHGAP8 /// PRR5-ARHGAP8 (11727945_x_at) / Fold change /veh ARHGAP8 /// PRR5-ARHGAP8 (11727945_x_at) / RFU KRTAP5-7 /// NADSYN1 (11734609_at) / Fold change /veh KRTAP5-7 /// NADSYN1 (11734609_at) / RFU RASL12 (11751679_a_at) / Fold change /veh RASL12 (11751679_a_at) / RFU CDKN2B (11736163_a_at) / Fold change /veh CDKN2B (11736163_a_at) / RFU PRF1 (11729649_at) / Fold change /veh PRF1 (11729649_at) / RFU, ZNF638 /// ZNF638-IT1 / Fold change vs veh, ZNF638 /// ZNF638-IT1 / RFU, PANK3 / Fold change vs veh, PANK3 / RFU, SH3YL1 / Fold change vs veh, SH3YL1 / RFU, ZEB2 / Fold change vs veh, ZEB2 / RFU, NRIP1 / Fold change vs veh, NRIP1 / RFU, PTTG1IP / Fold change vs veh, PTTG1IP / RFU, CAPN2 / Fold change vs veh, CAPN2 / RFU, MED14 / Fold change vs veh, MED14 / RFU, SNORA58 / Fold change vs veh, SNORA58 / RFU, C1orf63 / Fold change vs veh, C1orf63 / RFU, LRRFIP1 / Fold change vs veh, LRRFIP1 / RFU, NDUFAF7 / Fold change vs veh, NDUFAF7 / RFU, SLC12A2 / Fold change vs veh, SLC12A2 / RFU, IBTK / Fold change vs veh, IBTK / RFU, ESF1 / Fold change vs veh, ESF1 / Fold change vs veh, TMEM50B / RFU, TAOK1 / Fold change vs veh, TAOK1 / RFU, ACBD3 / Fold change vs veh, ACBD3 / RFU, TMA16 / Fold change vs veh, TMA16 / RFU, RWDD3 / Fold change vs veh, RWDD3 / RFU, BCAT1 / Fold change vs veh, BCAT1 / RFU, EDEM3 / Fold change vs veh, EDEM3 / RFU, TMEM33 / Fold change vs veh, TMEM33 / RFU, WDR75 / Fold change vs veh, WDR75 / RFU, AHCTF1 / Fold change vs veh, AHCTF1 / RFU, TFRC / Fold change vs veh, TFRC / RFU, ZDHHC17 / Fold change vs veh, ZDHHC17 / RFU, NOM1 / Fold change vs veh, NOM1 / RFU, ARL8B / Fold change vs veh, ARL8B / RFU, ZBTB11 / Fold change vs veh, ZBTB11 / RFU, TAMM41 / Fold change vs veh, TAMM41 / RFU, KIAA1704 /// LOC100996395 / Fold change vs veh, KIAA1704 /// LOC100996395 / RFU, ING1 / Fold change vs veh, ING1 / RFU, TRMT61B / Fold change vs veh, TRMT61B / RFU, FUBP3 / Fold change vs veh, FUBP3 / RFU, TP53 / Fold change vs veh, TP53 / RFU, TNKS2 / Fold change vs veh, TNKS2 / RFU, ZFP14 / Fold change vs veh, ZFP14 / RFU, ACTR2 / Fold change vs veh, ACTR2 / RFU, PPP3R1 / Fold change vs veh, PPP3R1 / RFU, PIK3R1 / Fold change vs veh, PIK3R1 / RFU, HNRNPA1 / Fold change vs veh, HNRNPA1 / RFU, RNF170 / Fold change vs veh, RNF170 / RFU, ZNF28 / Fold change vs veh, ZNF28 / RFU, RNGTT / Fold change vs veh, RNGTT / RFU, OGT / Fold change vs veh, OGT / RFU, BRD1 / Fold change vs veh, BRD1 / RFU, MARS / Fold change vs veh, MARS / RFU, ZNF655 / Fold change vs veh, ZNF655 / RFU, FAHD1 / Fold change vs veh, FAHD1 / RFU, BDP1 / Fold change vs veh, BDP1 / RFU, LRRCC1 / Fold change vs veh, LRRCC1 / RFU, ARID1A / Fold change vs veh, ARID1A / RFU, ZNF146 / Fold change vs veh, ZNF146 / RFU, ZNF330 / Fold change vs veh, ZNF330 / RFU, GPN3 / Fold change vs veh, GPN3 / RFU, C9orf123 / Fold change vs veh, C9orf123 / RFU, N4BP2L2 / Fold change vs veh, N4BP2L2 / RFU, ARFIP1 / Fold change vs veh, ARFIP1 / RFU, FAM179B / Fold change vs veh, FAM179B / RFU, BCL10 / Fold change vs veh, BCL10 / RFU, UHRF1BP1L / Fold change vs veh, UHRF1BP1L / RFU, BET1 / Fold change vs veh, BET1 / RFU, CNOT2 / Fold change vs veh, CNOT2 / RFU, ZNF268 / Fold change vs veh, ZNF268 / Fold change vs veh, ZNF507 / RFU, DGCR2 / Fold change vs veh, DGCR2 / RFU, WDSUB1 / Fold change vs veh, WDSUB1 / Fold change vs veh, HSP90B1 /// MIR3652 / RFU, ADSS / Fold change vs veh, ADSS / RFU, GK / Fold change vs veh, GK / RFU, ZNF148 / Fold change vs veh, ZNF148 / RFU, TAF9 / Fold change vs veh, TAF9 / RFU, SLC1A5 / Fold change vs veh, SLC1A5 / RFU, SLMO2 / Fold change vs veh, SLMO2 / RFU, ABCC4 / Fold change vs veh, ABCC4 / RFU, LOC101060439 /// RAP1B / Fold change vs veh, LOC101060439 /// RAP1B / RFU, RFX7 / Fold change vs veh, RFX7 / RFU, GTPBP10 / Fold change vs veh, GTPBP10 / RFU, CNEP1R1 / Fold change vs veh, CNEP1R1 / RFU, BIVM-ERCC5 /// ERCC5 / Fold change vs veh, BIVM-ERCC5 /// ERCC5 / RFU, ILF3 / Fold change vs veh, ILF3 / RFU 11762660_at / Fold change /veh 11762660_at / RFU VCAN (11757783_s_at) / Fold change /veh VCAN (11757783_s_at) / RFU DDX43 (11728927_at) / Fold change /veh DDX43 (11728927_at) / RFU KRT8 (11758188_x_at) / Fold change /veh KRT8 (11758188_x_at) / RFU NKD1 (11759106_at) / Fold change /veh NKD1 (11759106_at) / RFU SRD5A1 (11742802_a_at) / Fold change /veh SRD5A1 (11742802_a_at) / RFU TPSAB1 /// TPSB2 (11721975_s_at) / Fold change /veh TPSAB1 /// TPSB2 (11721975_s_at) / RFU GSTM3 (11746129_a_at) / Fold change /veh GSTM3 (11746129_a_at) / RFU IL23R (11737362_x_at) / Fold change /veh IL23R (11737362_x_at) / RFU TMEM51 (11727254_a_at) / Fold change /veh TMEM51 (11727254_a_at) / RFU PIWIL2 (11732686_x_at) / Fold change /veh PIWIL2 (11732686_x_at) / RFU ORM1 (11744905_x_at) / Fold change /veh ORM1 (11744905_x_at) / RFU CCDC152 (11743942_at) / Fold change /veh CCDC152 (11743942_at) / RFU ECM1 (11717891_a_at) / Fold change /veh ECM1 (11717891_a_at) / RFU IL23R (11748794_a_at) / Fold change /veh IL23R (11748794_a_at) / RFU TNFAIP8L3 (11732012_x_at) / Fold change /veh TNFAIP8L3 (11732012_x_at) / RFU MBOAT4 (11741988_at) / Fold change /veh MBOAT4 (11741988_at) / RFU 11764193_at / Fold change /veh 11764193_at / RFU TMEM53 (11763286_at) / Fold change /veh TMEM53 (11763286_at) / RFU MAGEB2 (11727129_at) / Fold change /veh MAGEB2 (11727129_at) / RFU TMEM200A (11744735_a_at) / Fold change /veh TMEM200A (11744735_a_at) / RFU CCDC152 (11751479_a_at) / Fold change /veh CCDC152 (11751479_a_at) / RFU FAM211A (11726209_a_at) / Fold change /veh FAM211A (11726209_a_at) / RFU RGS16 (11746705_a_at) / Fold change /veh RGS16 (11746705_a_at) / RFU VCAN (11755009_s_at) / Fold change /veh VCAN (11755009_s_at) / RFU RHOB (11743442_s_at) / Fold change /veh RHOB (11743442_s_at) / RFU RGS16 (11720943_a_at) / Fold change /veh RGS16 (11720943_a_at) / RFU RGS16 (11720944_at) / Fold change /veh RGS16 (11720944_at) / RFU, VPS4B / Fold change vs veh, VPS4B / RFU, CREB1 / Fold change vs veh, CREB1 / RFU, DNAJC13 / Fold change vs veh, DNAJC13 / RFU, GNAQ / Fold change vs veh, GNAQ / RFU, CDK5R1 / Fold change vs veh, CDK5R1 / RFU, ZRANB3 / Fold change vs veh, ZRANB3 / RFU, CUL4A / Fold change vs veh, CUL4A / RFU, CCNY / Fold change vs veh, CCNY / RFU, UFL1 / Fold change vs veh, UFL1 / RFU, COG3 / Fold change vs veh, COG3 / RFU, DIAPH2 / Fold change vs veh, DIAPH2 / RFU, SKA2 / Fold change vs veh, SKA2 / RFU, AFF3 / Fold change vs veh, AFF3 / RFU, LMF1 / Fold change vs veh, LMF1 / RFU, IPO11 / Fold change vs veh, IPO11 / RFU, DFFB / Fold change vs veh, DFFB / RFU, FOXP1 / Fold change vs veh, FOXP1 / RFU, CARD8 / Fold change vs veh, CARD8 / RFU, STRN3 / Fold change vs veh, STRN3 / RFU, ADK / Fold change vs veh, ADK / RFU, RASSF2 / Fold change vs veh, RASSF2 / RFU, WIPF1 / Fold change vs veh, WIPF1 / RFU, LARP1B / Fold change vs veh, LARP1B / RFU, RASA1 / Fold change vs veh, RASA1 / RFU, RB1 / Fold change vs veh, RB1 / RFU, PPFIA1 / Fold change vs veh, PPFIA1 / RFU, MAT2A / Fold change vs veh, MAT2A / RFU, CCT5 / Fold change vs veh, CCT5 / RFU, WDR92 / Fold change vs veh, WDR92 / RFU, CUX1 / Fold change vs veh, CUX1 / RFU, TTC7A / Fold change vs veh, TTC7A / RFU, TMEM135 / Fold change vs veh, TMEM135 / RFU, DEPTOR / Fold change vs veh, DEPTOR / RFU, CPM / Fold change vs veh, CPM / RFU, DNAJB6 / Fold change vs veh, DNAJB6 / RFU, CACNA2D3 / Fold change vs veh, CACNA2D3 / RFU, DTX4 / Fold change vs veh, DTX4 / RFU, TFCP2 / Fold change vs veh, TFCP2 / RFU, GMCL1 /// GMCL1P1 / Fold change vs veh, GMCL1 /// GMCL1P1 / RFU, AEBP2 / Fold change vs veh, AEBP2 / RFU, SNHG1 /// SNORD22 /// SNORD25 /// SNORD26 /// SNORD27 /// SNORD28 /// SNORD29 /// SNORD31 / Fold change vs veh, SNHG1 /// SNORD22 /// SNORD25 /// SNORD26 /// SNORD27 /// SNORD28 /// SNORD29 /// SNORD31 / Fold change (Aza/veh), C12orf56 (ProbeSet 11735607_a_at) / Fold change (ACY-1035/veh), C12orf56 (ProbeSet 11735607_a_at) / Fold change (Aza/veh), FGFR1OP (ProbeSet 11751329_s_at) / Fold change (ACY-1035/veh), FGFR1OP (ProbeSet 11751329_s_at) / Fold change (Aza/veh), VPS36 (ProbeSet 11739960_a_at) / Fold change (ACY-1035/veh), VPS36 (ProbeSet 11739960_a_at) / RFU SYPL1 (11715823_x_at) / Fold change /veh SYPL1 (11715823_x_at) / RFU IGFBP7 (11715501_s_at) / Fold change /veh IGFBP7 (11715501_s_at) / RFU REEP3 (11722064_at) / Fold change /veh REEP3 (11722064_at) / RFU IGLL1 (11728026_x_at) / Fold change /veh IGLL1 (11728026_x_at): dose or concentration left out as unconfirmed
# Settings: MV-4-11 cells, 48 hours
smiles,measurement,value
Nc1ncn([C@@H]2O[C@H](CO)[C@@H](O)[C@H]2O)c(=O)n1 [azacitidine],RFU ISYNA1 (11749810_s_at),23.56 RFU

# Reference: PMC5218480 (PLoS ONE, 2017)
